Laboratory results taken from patent US20240376099A1, “COMPOUNDS AND COMPOSITIONS AS INHIBITORS OF ENDOSOMAL TOLL-LIKE RECEPTORS” (Novartis AG, priority 2016, published 2024).
pIC50: −log10 of the molar value.

Target: T1, TLR9 (Homo sapiens, UniProt Q9NR96)
T1 construct: Fresh blood was collected from normal human donors; endogenous in cells; host or cells: human PBMCs from fresh donor blood
T1 sequence (Q9NR96 26-1032): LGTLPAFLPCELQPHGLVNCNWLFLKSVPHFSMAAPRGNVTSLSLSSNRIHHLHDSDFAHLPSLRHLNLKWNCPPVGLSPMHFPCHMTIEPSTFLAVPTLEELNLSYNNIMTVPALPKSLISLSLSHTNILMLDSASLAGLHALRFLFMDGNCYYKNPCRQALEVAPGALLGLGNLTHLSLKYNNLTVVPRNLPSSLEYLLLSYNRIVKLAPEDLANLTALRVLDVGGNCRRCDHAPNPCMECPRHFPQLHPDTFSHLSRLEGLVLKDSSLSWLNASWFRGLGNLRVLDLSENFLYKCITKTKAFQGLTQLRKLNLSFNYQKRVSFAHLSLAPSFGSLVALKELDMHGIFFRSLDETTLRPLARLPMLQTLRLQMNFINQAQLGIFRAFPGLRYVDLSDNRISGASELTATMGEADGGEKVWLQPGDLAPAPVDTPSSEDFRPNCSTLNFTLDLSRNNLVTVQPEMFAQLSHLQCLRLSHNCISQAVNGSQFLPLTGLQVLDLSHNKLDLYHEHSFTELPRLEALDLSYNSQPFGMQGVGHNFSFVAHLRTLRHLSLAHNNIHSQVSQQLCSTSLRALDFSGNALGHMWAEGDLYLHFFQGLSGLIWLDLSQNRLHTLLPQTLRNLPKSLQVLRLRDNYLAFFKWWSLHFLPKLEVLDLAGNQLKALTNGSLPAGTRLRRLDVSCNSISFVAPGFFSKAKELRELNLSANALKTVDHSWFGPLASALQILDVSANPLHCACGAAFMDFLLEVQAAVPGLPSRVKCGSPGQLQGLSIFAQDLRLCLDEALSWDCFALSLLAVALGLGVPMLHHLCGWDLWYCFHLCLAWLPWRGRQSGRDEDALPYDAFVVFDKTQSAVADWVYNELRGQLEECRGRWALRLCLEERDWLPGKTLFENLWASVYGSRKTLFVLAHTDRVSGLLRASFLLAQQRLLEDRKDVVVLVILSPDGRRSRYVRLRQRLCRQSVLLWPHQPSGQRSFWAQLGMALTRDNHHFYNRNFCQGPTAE
Test: huPBMC TLR9 Antagonist IFNα Assay
Type: cell-based
Settings: human PBMCs stimulated with ODN2216 0.3 μM, 14-16 hrs; IFNα2b AlphaLISA read-out
Outline: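 Human PBMCs from fresh donor blood (150,000 cells/well) stimulated 14–16 h at 37 °C with DOTAP-complexed ssRNA40 (final 1 μg/ml for TLR8, 10 μg/mL for TLR7) or ODN2216 (final 0.3 μM, TLR9), 0.25% DMSO, ten-point 1/3 compound dilutions. Supernatant IL-6 read by HTRF (TLR8); IFNα by IFNα2b AlphaLISA (TLR7/TLR9).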

Row | SMILES | pIC50
1 | Cc1nc(N2CCc3c(c(C)nn3CC34CCC(N(C5CCC5)C5CCC5)(CC3)CC4)C2)c2c(n1)c(C)nn2C [compound 28, N,N-dicyclobutyl-4-((3-methyl-5-(1,3,5-trimethyl-1H-pyrazolo[4,3-d]pyrimidin-7-yl)-4,5,6,7-tetrahydro-1H-pyrazolo[4,3-c]pyridin-1-yl)methyl)bicyclo[2.2.2]octan-1-amine] | < 5.00
2 | Cc1nc(N2CCc3c(c(C)nn3CC34CCC(N5CCCCC5)(CC3)CC4)C2)c2cn[nH]c2n1 [compound 29, 6-methyl-4-(3-methyl-1-((4-(piperidin-1-yl)bicyclo[2.2.2]octan-1-yl)methyl)-6,7-dihydro-1H-pyrazolo[4,3-c]pyridin-5(4H)-yl)-1H-pyrazolo[3,4-d]pyrimidine] | < 5.00
3 | Cc1nc(N2CCc3c(c(C)nn3CC34CCC(N5CCCC5)(CC3)CC4)C2)c2cn[nH]c2n1 [compound 30, 6-methyl-4-(3-methyl-1-((4-(pyrrolidin-1-yl)bicyclo[2.2.2]octan-1-yl)methyl)-6,7-dihydro-1H-pyrazolo[4,3-c]pyridin-5(4H)-yl)-1H-pyrazolo[3,4-d]pyrimidine] | < 5.00
4 | Cc1nc(N2CCc3c(c(C)nn3CC34CCC(NC(=O)[C@@H]5COCCN5)(CC3)CC4)C2)c2c(n1)c(C)nn2C [compound 33, (S)-N-(4-((3-methyl-5-(1,3,5-trimethyl-1H-pyrazolo[4,3-d]pyrimidin-7-yl)-4,5,6,7-tetrahydro-1H-pyrazolo[4,3-c]pyridin-1-yl)methyl)bicyclo[2.2.2]octan-1-yl)morpholine-3-carboxamide] | < 5.00
5 | Cc1nc(N2CCc3c(c(C)nn3CC34CCC(NC(=O)[C@@H]5CNCCO5)(CC3)CC4)C2)c2c(n1)c(C)nn2C [compound 34, (S)-N-(4-((3-methyl-5-(1,3,5-trimethyl-1H-pyrazolo[4,3-d]pyrimidin-7-yl)-4,5,6,7-tetrahydro-1H-pyrazolo[4,3-c]pyridin-1-yl)methyl)bicyclo[2.2.2]octan-1-yl)morpholine-2-carboxamide] | 5.24
6 | Cc1nc(N2CCc3c(c(C)nn3CC34CCC(NC(=O)[C@H]5CNCCO5)(CC3)CC4)C2)c2c(n1)c(C)nn2C [compound 36, (R)-N-(4-((3-methyl-5-(1,3,5-trimethyl-1H-pyrazolo[4,3-d]pyrimidin-7-yl)-4,5,6,7-tetrahydro-1H-pyrazolo[4,3-c]pyridin-1-yl)methyl)bicyclo[2.2.2]octan-1-yl)morpholine-2-carboxamide] | 5.30
7 | Cc1nc(N2CCc3c(c(C)nn3CC34CCC(N5CCOCC5)(CC3)CC4)C2)c2c(C)noc2n1 [compound 37, 3,6-dimethyl-4-(3-methyl-1-((4-morpholinobicyclo[2.2.2]octan-1-yl)methyl)-6,7-dihydro-1H-pyrazolo[4,3-c]pyridin-5(4H)-yl)isoxazolo[5,4-d]pyrimidine] | < 5.00
8 | Cc1nc(N2CCc3c(c(C)nn3CC34CCC(N5CCCCC5)(CC3)CC4)C2)c2c(n1)c(C)nn2C [compound 38, 1,3,5-trimethyl-7-(3-methyl-1-((4-(piperidin-1-yl)bicyclo[2.2.2]octan-1-yl)methyl)-6,7-dihydro-1H-pyrazolo[4,3-c]pyridin-5(4H)-yl)-1H-pyrazolo[4,3-d]pyrimidine] | < 5.00
9 | Cc1nc(N2CCc3c(c(C)nn3CC34CCC(N5CCCCC5)(CC3)CC4)C2)c2cnn(C)c2n1 [compound 39, 1,6-dimethyl-4-(3-methyl-1-((4-(piperidin-1-yl)bicyclo[2.2.2]octan-1-yl)methyl)-6,7-dihydro-1H-pyrazolo[4,3-c]pyridin-5(4H)-yl)-1H-pyrazolo[3,4-c]pyrimidine] | < 5.00
10 | [2H]C([2H])([2H])N(C([2H])([2H])[2H])C12CCC(Cn3nc(C)c4c3CCN(c3nc(C)nc5c(C)nn(C)c35)C4)(CC1)CC2 [compound 40, 4-((3-methyl-5-(1,3,5-trimethyl-1H-pyrazolo[4,3-d]pyrimidin-7-yl)-4,5,6,7-tetrahydro-1H-pyrazolo[4,3-c]pyridin-1-yl)methyl)-N,N-bis(trideuteromethyl)bicyclo[2.2.2]octan-1-amine] | 5.60
11 | Cc1cc(N2CCc3c(c(C)nn3CC34CCC(NCC(=O)N5CCCCC5)(CC3)CC4)C2)c2cnn(C)c2n1 [compound 99, 2-((4-((5-(1,6-dimethyl-1H-pyrazolo[3,4-b]pyridin-4-yl)-3-methyl-4,5,6,7-tetrahydro-1H-pyrazolo[4,3-c]pyridin-1-yl)methyl)bicyclo[2.2.2]octan-1-yl)amino)-1-(piperidin-1-yl)ethanone] | 5.55
12 | Cc1cc(N2CCc3c(c(C)nn3CC34CCC(NCC(=O)N5CCCC5)(CC3)CC4)C2)c2cnn(C)c2n1 [compound 106, 2-((4-((5-(1,6-dimethyl-1H-pyrazolo[3,4-b]pyridin-4-yl)-3-methyl-4,5,6,7-tetrahydro-1H-pyrazolo[4,3-c]pyridin-1-yl)methyl)bicyclo[2.2.2]octan-1-yl)amino)-1-(pyrrolidin-1-yl)ethanone] | 5.57

Stronger by pIC50, values ahead:

Row | pIC50 | SMILES
13 | 5.63 | Cc1nc(N2CCc3c(c(C)nn3CC34CCC(NCC5(CO)COC5)(CC3)CC4)C2)c2c(n1)c(C)nn2C [compound 31, (3-(((4-((3-methyl-5-(1,3,5-trimethyl-1H-pyrazolo[4,3-d]pyrimidin-7-yl)-4,5,6,7-tetrahydro-1H-pyrazolo[4,3-c]pyridin-1-yl)methyl)bicyclo[2.2.2]octan-1-yl)amino)methyl)oxetan-3-yl)methanol]
14 | 5.69 | Cc1cc(N2CCc3c(c(C(F)(F)F)nn3CC34CCC(N)(CC3)CC4)C2)c2cnn(C)c2n1 [compound 45, 4-((5-(1,6-dimethyl-1H-pyrazolo[3,4-b]pyridin-4-yl)-3-(trifluoromethyl)-4,5,6,7-tetrahydro-1H-pyrazolo[4,3-c]pyridin-1-yl)methyl)bicyclo[2.2.2]octan-1-amine]
15 | 5.77 | Cc1cc(N2CCc3c(c(C)nn3CC34CCC(N5CCO[C@H](C)C5)(CC3)CC4)C2)c2cnn(C)c2n1 [compound 107, (R)-4-(4-((5-(1,6-dimethyl-1H-pyrazolo[3,4-b]pyridin-4-yl)-3-methyl-4,5,6,7-tetrahydro-1H-pyrazolo[4,3-c]pyridin-1-yl)methyl)bicyclo[2.2.2]octan-1-yl)-2-methylmorpholine]
16 | 5.79 | Cc1cc(N2CCc3c(c(C)nn3CC34CCC(NC(=O)CCN(C)C)(CC3)CC4)C2)c2cnn(C)c2n1 [compound 105, N-(4-((5-(1,6-dimethyl-1H-pyrazolo[3,4-b]pyridin-4-yl)-3-methyl-4,5,6,7-tetrahydro-1H-pyrazolo[4,3-c]pyridin-1-yl)methyl)bicyclo[2.2.2]octan-1-yl)-3-(dimethylamino)propanamide]
17 | 5.86 | Cc1cc(N2CCc3c(c(C)nn3CC34CCC(NC(=O)CN5CCCC5)(CC3)CC4)C2)c2cnn(C)c2n1 [compound 100, N-(4-((5-(1,6-dimethyl-1H-pyrazolo[3,4-b]pyridin-4-yl)-3-methyl-4,5,6,7-tetrahydro-1H-pyrazolo[4,3-c]pyridin-1-yl)methyl)bicyclo[2.2.2]octan-1-yl)-2-(pyrrolidin-1-yl)acetamide]
18 | 5.91 | COCCNC12CCC(Cn3nc(C)c4c3CCN(c3cc(C)nc5c3cnn5C)C4)(CC1)OC2 [compound 102, 1-((5-(1,6-dimethyl-1H-pyrazolo[3,4-b]pyridin-4-yl)-3-methyl-4,5,6,7-tetrahydro-1H-pyrazolo[4,3-c]pyridin-1-yl)methyl)-N-(2-methoxyethyl)-2-oxabicyclo[2.2.2]octan-4-amine]
19 | 5.92 | Cc1cc(N2CCc3c(c(C)nn3CC34CCC(N)(CC3)C4)C2)c2cnn(C)c2n1 [compound 44, 4-((5-(1,6-dimethyl-1H-pyrazolo[3,4-b]pyridin-4-yl)-3-methyl-4,5,6,7-tetrahydro-1H-pyrazolo[4,3-c]pyridin-1-yl)methyl)bicyclo[2.2.1]heptan-1-amine]
20 | 6.09 | Cc1nn(CC23CCC(N)(CC2)CC3)c2c1CN(c1ccnc3[nH]ncc13)CC2 [compound 41, 4-((3-methyl-5-(1H-pyrazolo[3,4-b]pyridin-4-yl)-4,5,6,7-tetrahydro-1H-pyrazolo[4,3-c]pyridin-1-yl)methyl)bicyclo[2.2.2]octan-1-amine]
21 | 6.33 | Cc1c2c(nn1CC13CCC(N)(CC1)CC3)CCN(c1ccnc3[nH]ncc13)C2 [compound 42, 4-((3-methyl-5-(1H-pyrazolo[3,4-b]pyridin-4-yl)-4,5,6,7-tetrahydro-2H-pyrazolo[4,3-c]pyridin-2-yl)methyl)bicyclo[2.2.2]octan-1-amine]
